Assay results taken from patent US20130040903A1, “PHARMACEUTICAL COMPOSITIONS FOR TREATING DEPRESSION AND ANXIETY” (priority 2007, published 2013).

Tests used:
[1] = tested on: ICR mice; assay: Resetpine-induced mouse body temperature decrease experiment (Experiments 2, 5, 7); format: in vivo; conditions: Experiment 5; 3 mg/kg P.O. 7 days; 4 hours after Resetpine 2 mg/kg i.p.
Protocol: 2.5.1 Group division and administration of drug: The mice are grouped randomly, and 10 mice are in each group. 1. High dose of Embodiment 1 (80 mg/kg, P.O., administered for 7 days); 2. middle dose of Embodiment 1 (40 mg/kg, P.O., administered for 7 days); 3. low dose of Embodiment 1 (20 mg/kg, P.O., administered for 7 days); 4.
2.5.2 Experimental method: After 1 hour of the last administration of drug on the eighth day, the mouse's anal temperature is determined. Then 2 mg of Resetpine per kilogram of the body weight is given by intraperitoneal injection. After 4 hours of injecting Resetpine, mouse's anal temperature is determined once again. The depth and time of injecting the thermometer into mouse's anus are identical in each temperature measurement.
5.5.1 Group division and administration of drug: The mice are grouped randomly, and 10 mice are in each group. 1. […]
5.5.2 Experimental method: After 1 hour of the last administration of drug on the eighth day, the mouse's anal temperature is determined. […] After 4 hours of injecting Resetpine, mouse's anal temperature is determined once again. […]
2.5.2 Experimental method: After 1 hour of the last administration of drug on the eighth day, the mouse's anal temperature is determined. […] After 4 hours of injecting Resetpine, mouse's anal temperature is determined once again. […]

[2] = tested on: Kunming (KM) mice; assay: Mouse light-dark transition experiment (Experiments 3, 10); format: in vivo; conditions: 2.5 mg/kg into the stomach once daily 7 days, within 10 minutes
Protocol: 3.5.1 Group division and administration of drug: The mice are grouped randomly as 5 groups, and 10 mice are in each group. 1. High dose of Embodiment 1 (80 mg/kg); 2. middle dose of Embodiment 1 (40 mg/kg); 3. low dose of Embodiment 1 (20 mg/kg); 4. Diazepam (2.5 mg/kg); and 5. physiological saline (normal saline, NS). The drugs are fed into the mouse stomach once every day, and the mouse is administered for continuous 7 days. In the period of administration, the mouse eats and drinks freely, and the experiment is proceeded after 1 hour of the last administration of drug on the eighth day.
Mouse light-dark transition test: The dark chamber occupies one third of the light-dark transition chamber (44 cm×21 cm×21 cm), and the top is capped. The light chamber occupies two third thereof and is illuminated brightly. […] The times that the mouse enters into the dark chamber and returns to the light chamber within 10 minutes are determined, and the times thereof are being the index for evaluating the anti-anxiety function of the drugs. […]
Mouse light-dark transition test: The dark chamber occupies one third of the light-dark transition chamber (44 cm×21 cm×21 cm), and the top is capped. […] The times that the mouse enters into the dark chamber and returns to the light chamber within 10 minutes are determined, and the times thereof are being the index for evaluating the anti-anxiety function of the drugs.

## Fc1ccc([C@@H]2CCNC[C@H]2COc2ccc3c(c2)OCO3)cc1 [Paroxetine]
[1]
  Time of non-movement: 2.38 ± 0.69 s

## CN1C(=O)CN=C(c2ccccc2)c2cc(Cl)ccc21 [Diazepam]
[2]; Experiment 3
  Times of passing from dark chamber to light chamber: 11.3 ± 4.54
[2]; Experiment 10
  Times of passing from dark chamber to light chamber: 11.7 ± 4.47
